Results as given in patent publication US9539315B2, “Methods, agents and peptides for inhibiting matrix metalloproteinase-2 signaling” (New York University, priority 2011, dated 2017).

Assays:
Assay type in all cases: cell-based, human
[1] = tested on: MMP-2-specific CD4^+ T cells; experiment: Screen of overlapping MMP-2 peptides for recognition by CD4+ T cell clones; conditions: 20-mer peptides of MMP-2
Description: By way of background, the present inventors used a pool of sixty-six 20-amino acid long, partially overlapping peptides spanning the entire sequence of MMP-2 (SEQ ID NO: 1) to screen for the presence of MMP-2-specific CD4^+ T cells and identify the specific MMP-2 epitopes for which these clones were specific. See, for example, FIG. 6. Using this method, CD4^+ T cell clones specific for eleven distinct and novel MMP-2-derived peptides/epitopes were generated. An empirical approach to determining which, if any, of the potential MMP-2 peptides could induce MMP-2-specific CD4^+ T cells was necessitated because of the nature and complexity of antigen processing and presentation by antigen presenting cells [APCs; e.g., monocyte-derived dendritic cells (DCs)] and the additional complexities involved in T cell recognition of presented antigen, which are influenced by, for example, the presence and/or concentration of particular cytokines that are instructive for divergent T cell differentiation pathways.
Peripheral blood mononuclear cells (PBMCs) can be purified from healthy donor- (HD) or cord blood donor- (CB) derived buffy coats (New York Blood Center) by Ficoll-Paque Plus (GE Healthcare) centrifugation. CD4^+/CD25^− cells were enriched (>90%) by magnetic cell sorting (Miltenyi Biotec) and primed/stimulated for 12-15 days either with irradiated (35Gy) autologous CD4^− cells or with autologous mature DCs in IMDM (GIBCO) supplemented with 1 mM HEPES (Life Technologies), 2 mM L-glutamine (Sigma), […] (Sigma) and 5% heat inactivated pooled human serum (PHS; Valley Biomedical) in the presence of rhIL-2 (10 UI/mL) and IL7 (5 ng/mL) (R&D Systems). Antigen presenting cells (CD4^− cells or DCs) were loaded either with peptides […] or with the MMP-2 protein (10 μg/mL) for 2 and 5 h, respectively. To generate T cell clones, we originally relied on our published methodology (Godefroy et al., 2006; Godefroy et al., 2007; the entire content of each of which is incorporated herein by reference), involving enrichment of IFNγ-secreting cells upon short-term culture and peptide stimulation to generate MMP-2 responsive clones. Briefly, CD4^+ T cells were stimulated by CD4^− cells irradiated and pulsed with peptides for 12 days in the presence of rhIL-2 and rhIL-7. CD4^+ T cells were then restimulated with peptides for 3 hours before capturing IFNγ-secreting specific cells using a bispecific antibody coating T cells and capturing produced IFNγ. Positive cells were purified magnetically before being cloned. Although MMP-2-specific cells could be isolated, it was realized that IFNγ secretion was marginal compared to their secretion of IL-4 and TNFα. IFNγ-secreting cells in response to MMP-2 peptide pool were enriched by cytokine-guided magnetic cell sorting (Miltenyi Biotec) as described above and cloned the following day by limiting dilution in the presence of irradiated allogeneic PBMCs, 1 μg/mL phytohemagglutinin-L (Sigma) and 150 UI/mL rhIL-2. Tumor infiltrating lymphocytes (TILs) were provided by Pr. F. Jotereau and B. Dréno. They were obtained from tumor-invaded lymph nodes of melanoma patients (stage IIIb) and expanded ex vivo. These patients received autologous TILs and IL-2 infusions in a clinical trial (Labarriere et al., 2002). This protocol was approved by the Institutional Ethics Committee and registered with regulatory state authority in France (Nantes).
T-bet and GATA-3 expression was measured on resting T cells. Cells were fixed (4% paraformaldehyde for 10 min at RT), permeabilized with 0.1% saponin, and stained for intracellular transcription factors. Cytokine production by T cells was also assessed by intracellular staining. T cells were stimulated with 2 μM overlapping peptides. After 1 h, 10 μg/mL brefeldin A was added to the cells. […]

[2] = tested on: OX40L; experiment: OX40L expression on DCs (staining); conditions: for OX40L expression on DCs: DCs exposed for 2 days, stained for OX40L
Description: (§1) A) DCs were exposed to MMP-2 […] or zymosan […], a known activator of NF-κB that acts via TLR2, for the indicated time. Cytosolic and nuclear fractions were isolated and p50 contents were measured by ELISA. […] C) OX40L over-expression on DCs induced by MMP-2 is inhibited by an inhibitor of NEMO, the NEMO binding domain (NBD) peptide, but not by the corresponding negative control, a NBD mutant.
A) DCs were exposed to various TLR agonists for 2 days before cells were stained for OX40L. […] B) TLR2-transfected and engineered HEK cells were incubated with MMP-2 (5 mg/ml) or various controls. All conditions were also tested in the presence of a blocking antibody for TLR2. TNFα was used to activate NF-κB in a TLR-independent manner. Twenty hours later, NF-κB activation was measured.
Antibody to OX40L (11C3.1) was from Biolegend. Blocking antibodies to TLR-2 and TLR-6 were from Invivogen. Antibodies to GATA-3, IL-4 (8D4-8), IL-5 (JES1-39D10), IL-13 (JES10-5A2), TNFα (MAb11), IFNγ (25723.11), perforin (δG9), GranzymeB (GB11), CD40 (5C3), CD80 (L307.4), CD83 (HB15e), CD86 (IT2.2), HLA-DR (TU36), fluorescein isothiocyanate-conjugated antibodies to CD45RA (HI100) and CD45RO (UCHL1), and antibody to CD4 (RPA-T4) were purchased from BD Biosciences Pharmingen. Alexa fluor 488-conjugated antibody to IL-17 (eBio64DEC17), phycoerythrine-conjugated antibody to T-bet (4B10).
(§2) PBMCs were purified from healthy-(HD) or cord blood- (CB) donors and plated at 40×10^6 cells/10 mL/dish in complete IMDM with 5% PHS. Cells were allowed to adhere for 2 h at 37° C. Non-adherent cells were removed. The monocyte-enriched fraction was supplemented with 100 UI/mL rhGMCSF and 300 UI/mL rhIL-4 (R&D Systems) on days 0, 2 and 4. Immature DCs were harvested on day 5 and matured using poly(I:C) at 5 μg/mL/10^6 DCs (Amersham). Secretion of IL-12p70, TNFα, IL-1β, IL-6, IL-8 and IL-10 was assessed on both immature and mature DCs using the Human Inflammatory Cytokine Cytometric Bead Array (BD Pharmingen).

[3] = tested on: NF-κB pathway; experiment: p50 nuclear translocation / NF-κB activation in DCs (ELISA of cytosolic and nuclear fractions)
Description: as §1, §2
Activation of T cell clones (10,000 cells/100 μL/well), polyclonal T cell populations (100,000 cells/100 μL/well), and DCs (50,000 cells/100 μL/well) can be determined by ELISA. IFNγ (BioSource), TNFα (BioSource), IL-4 (BioSource), IFNβ (VeriKine; PBL interferon source) and MCP-3 (DuoSet; R&D Systems) contents in supernatants were measured according to the manufacturer's instructions. p50 was measured in cytosolic and nuclear fractions (fractions separated using the nuclear separation kit from Active motif) by ELISA (Active motif).

Molecule	recognition as epitope by CD4+ T cell clones [1]	also measured
GCLLSHAAAAPSPIIKFPGD (listed as Homo sapiens) [P21-40]	recognized by CD4^+ T cell clones	
VDLQGGGHSYFFKGAYYLKL (listed as Homo sapiens) [P621-640]	recognized by CD4^+ T cell clones	
RIHDGEADIMINFGRWEHGD (listed as Homo sapiens) [P161-180]	recognized by CD4^+ T cell clones	
TGPLRALCLLGCLLSHAAAA (listed as Homo sapiens) [P11-30]	recognized by CD4^+ T cell clones	
ESCTSAGRSDGKMWCATTAN (listed as Homo sapiens) [P361-380]	recognized by CD4^+ T cell clones	
VAPKTDKELAVQYLNTFYGC (listed as Homo sapiens) [P41-60]	recognized by CD4^+ T cell clones	
GYPKPLTSLGLPPDVQRVDA (listed as Homo sapiens) [P551-570]	recognized by CD4^+ T cell clones	
FFKGAYYLKLENQSLKSVKF (listed as Homo sapiens) [P631-650]	recognized by CD4^+ T cell clones	
MEALMARGALTGPLRALCLL (listed as Homo sapiens) [P1-20]	recognized by CD4^+ T cell clones	
NEMO binding domain (NBD) peptide		inhibition of OX40L over-expression on DCs induced by MMP-2 ([2]; DCs, MMP-2-induced): inhibited
AFNWSKNKKTYIFAGDKFWR (listed as Homo sapiens) [P571-590]	recognized by CD4^+ T cell clones	
GFPKLIADAWNAIPDNLDAV (listed as Homo sapiens) [P601-620]	recognized by CD4^+ T cell clones	
Pam3CSK4		OX40L over-expression on TLR-2-transfected HEK cells or DCs ([2]; TLR-2/TLR-1 agonist): did not induce OX40L over-expression
MALP-2		OX40L expression on DCs [2]: induce OX40L on DCs
heat-inactivated (HI) MMP-2: MMP-2 enzyme inactivated by heating to 56° C. for 45 min (protein) YNFFPRKPKWDKNQITYRIIGYTPDLDPETVDDAFARAFQVWSDVTPLRFSRIHDGEADIMINFGRWEHGDGYPFDGKDGLLAHAFAPGTGVGGDSHFDDDELWTLGEGQVVRVKYGNADGEYCKFPFLFNGKEYNSCTDTGRSDGFLWCSTTYNFEKDGKYGFCPHEALFTMGGNAEGQPCKFPFRFQGTSYDSCTTEGRTDGYRWCGTTEDYDRDKKYGFCPETAMSTVGGNSEGAPCVFPFTFLGNKYESCTSAGRSDGKMWCATTANYDDDRKWGFCPDQGYSLFLVAAHEFGHAMGLEHSQDPGALMAPIYTYTKNFRLSQDDIKGIQELYGASPDIDLGTGPTPTLGPVTPEICKQDIVFDGIAQIRGEIFFFKDRFIWRTVTPRDKPMGPLLVATFWPELPEKIDAVYEAPQEEKAVFFAGNEYWIYSASTLERGYPKPLTSLGLPPDVQRVDAAFNWSKNKKTYIFAGDKFWRYNEVKKKMDPGFPKLIADAWNAIPDNLDAVVDLQGGGHSYFFKGAYYLKLENQSLKSVKFGSIKSDWLGC		OX40L expression on DCs [2]: induce OX40L expression; p50 translocation in the nucleus ([3]; DCs exposed to MMP-2 (5 μm/ml) or zymosan (10 μm/ml), p50 by ELISA): trigger p50 translocation in the nucleus; NF-κB activation in DCs ([3]; active vs heat-inactivated MMP-2): NF-κB activation (FIGS. 2A, 2B and 3) at similar levels
